Where “and” joins values, the source holds several entries; their conditions need not be identical. Equal values may be shown once.
Molecular target: SSTR2 (Homo sapiens, UniProt P30874)
Assay: NanoBiT β-arrestin 1 recruitment assay, HEK293 (SSTR2 wild-type);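 on Best-fit Bottom: percent of maximal wild-type SSTR2 response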;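 on Best-fit Top: percent of maximal wild-type SSTR2 response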;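 on Bottom (best-fit): percent of maximal wild-type response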;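 on Span (best-fit value): percent of maximal wild-type response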;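 on Top (best-fit value): percent of maximal wild-type response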
Type: cell-based
Parameters: Human full-length SSTR wild-type and mutant vectors were C-terminally fused; expressed in transfected cells; host or cells: HEK293; Best-fit values Bottom / Best-fit values Top / Best-fit values Span / Best-fit Bottom / Best-fit Top / Best-fit Span: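 percent of maximal wild-type SSTR2 response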
Conditions: for β-arrestin recruitment: compared with octreotide, Fig. 1c
Procedure: The NanoBiT β-arrestin 1 recruitment assays were carried out according to the method described previously. […] Human full-length SSTR wild-type and mutant vectors were C-terminally fused with a 15-amino acid flexible linker and the small fragment (SmBiT). HEK293 cells were seeded into six-well microplates at a density of 1.0 × 10^6 cells/well and cultured for 24 h at 37 °C with 5% CO2. After that, cells were co-transfected with pcDNA3.1+ vectors encoding SSTR wild-type or mutants and human β-arrestin 1. After transfecting for 24 h, the transfected cells were suspended and seeded into white 96-well plates, and then cultured at 37 °C overnight. After that the medium in each well was exchanged for 90 μl of 0.01% bovine serum albumin containing 20 μl of 50 μM coelenterazine h (Carbosynth) diluted in the HBSS assay buffer and incubated for 40 min at room temperature. Then, ligands diluted in the assay buffer was added to each well and the luminescence intensity was measured using the Synergy H1 microplate reader and detected at room temperature in a time period. All data presented are means of at least three independent experiments.

[1] = SSTR2-WT control of I284A-1, T194A-1, I195A-3, L99A-3, Q102A-1
[2] = SSTR2-WT control of I284A-2/-3, T194A-2/-3, L99A-1/-2, Q102A-3

Chain of SSTR2 (P30874 whole entry): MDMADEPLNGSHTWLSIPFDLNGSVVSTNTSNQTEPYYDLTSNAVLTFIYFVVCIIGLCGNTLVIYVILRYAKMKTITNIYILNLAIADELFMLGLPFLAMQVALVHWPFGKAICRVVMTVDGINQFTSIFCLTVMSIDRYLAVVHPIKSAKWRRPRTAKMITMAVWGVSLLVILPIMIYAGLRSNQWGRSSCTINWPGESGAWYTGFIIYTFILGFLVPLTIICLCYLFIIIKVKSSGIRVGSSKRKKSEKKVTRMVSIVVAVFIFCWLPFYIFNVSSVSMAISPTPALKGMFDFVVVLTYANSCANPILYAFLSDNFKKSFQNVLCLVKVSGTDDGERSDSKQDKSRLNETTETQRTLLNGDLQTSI
Chain of SSTR2 (P49407 whole entry partner): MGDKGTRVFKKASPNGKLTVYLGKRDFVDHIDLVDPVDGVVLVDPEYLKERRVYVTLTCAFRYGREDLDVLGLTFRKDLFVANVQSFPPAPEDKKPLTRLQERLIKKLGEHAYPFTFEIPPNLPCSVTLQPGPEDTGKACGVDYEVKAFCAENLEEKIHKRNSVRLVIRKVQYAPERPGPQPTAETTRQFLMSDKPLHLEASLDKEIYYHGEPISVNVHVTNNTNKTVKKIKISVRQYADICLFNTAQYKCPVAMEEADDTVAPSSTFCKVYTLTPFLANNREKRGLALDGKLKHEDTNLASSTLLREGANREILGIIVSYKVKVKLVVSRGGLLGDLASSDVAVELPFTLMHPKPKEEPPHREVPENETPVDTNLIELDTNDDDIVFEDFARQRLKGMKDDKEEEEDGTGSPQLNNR

SMILES: N#Cc1cccc(-c2ccc3ncc(-c4cc(F)cc(F)c4)c(N4CCC(N)CC4)c3c2)c1O [paltusotine]
- EC50 (Best-fit EC50, SSTR2-WT control of I284A-1, T194A-1, I195A-3, L99A-3): 420 nM
- EC50 (Best-fit EC50, SSTR2-WT control of I284A-2/-3, T194A-2/-3, L99A-1/-2): 455 nM
- EC50 (Best-fit EC50, SSTR2-WT-1 control of I195A-1): 306 nM
- EC50 (Best-fit EC50, SSTR2-WT-1 control of Y50A-1): 216 nM
- EC50 (Best-fit EC50, SSTR2-WT-2 control of I195A-2): 295 nM
- EC50 (Best-fit EC50, SSTR2-WT-2 control of Y50A-2): 272 nM
- EC50 (Best-fit EC50, SSTR2-WT-3 control of Y50A-3): 306 nM
- EC50 (EC50 (best-fit value), SSTR2-WT, run WT-1): 455 nM and 420 nM and 141 nM and 1270 nM and 292 nM
- EC50 (EC50 (best-fit value), SSTR2-WT, run WT-2): 455 nM and 399 nM and 131 nM and 141 nM and 613 nM
- EC50 (EC50 (best-fit value), SSTR2-WT, run WT-3): 726 nM and 216 nM and 292 nM and 131 nM and 538 nM and 455 nM
- EC50 (EC50 (best-fit), WT-1 (D122A set)): 420 nM
- EC50 (EC50 (best-fit), WT-1 (F127A set)): 307 nM
- EC50 (EC50 (best-fit), WT-1 (I130A set)): 292 nM
- EC50 (EC50 (best-fit), WT-1 (Q102A set)): 420 nM
- EC50 (EC50 (best-fit), WT-1 (Q126A set)): 306 nM
- EC50 (EC50 (best-fit), WT-1 (V103A set)): 306 nM
- EC50 (EC50 (best-fit), WT-2 (D122A set)): 399 nM
- EC50 (EC50 (best-fit), WT-2 (F127A set)): 272 nM
- EC50 (EC50 (best-fit), WT-2 (I130A set)): 141 nM
- EC50 (EC50 (best-fit), WT-2 (Q102A set)): 339 nM
- EC50 (EC50 (best-fit), WT-2 (Q126A set)): 455 nM
- EC50 (EC50 (best-fit), WT-2 (V103A set)): 295 nM
- EC50 (EC50 (best-fit), WT-3 (D122A set)): 455 nM
- EC50 (EC50 (best-fit), WT-3 (F127A set)): 292 nM
- EC50 (EC50 (best-fit), WT-3 (Q102A set)): 455 nM
- EC50 (EC50 (best-fit), WT-3 (Q126A set)): 455 nM
- EC50 (EC50 (best-fit), WT-3 (V103A set)): 306 nM
- EC50 (EC50 (β-arrestin1 recruitment), best-fit, WT-1 (SSTR2-WT set up beside each mutant)): 420 nM and 455 nM and 529 nM
- EC50 (EC50 (β-arrestin1 recruitment), best-fit, WT-2 (SSTR2-WT set up beside each mutant)): 455 nM and 420 nM and 613 nM
- EC50 (EC50 (β-arrestin1 recruitment), best-fit, WT-3 (SSTR2-WT set up beside each mutant)): 420 nM and 538 nM
- EC50 (EC50, β-arrestin recruitment, SSTR2 WT, n=6): 406 ± 5.62 nM
- Emax (HEK293): 100%
- Best-fit Span (SSTR2-WT control of I284A-1, T194A-1, I195A-3, L99A-3): 106.9
- Best-fit Bottom [1]: 1.007
- Best-fit LogEC50 [1]: -6.376
- Best-fit Top [1]: 107.9
- Best-fit Span (SSTR2-WT control of I284A-2/-3, T194A-2/-3, L99A-1/-2): 106.4
- Best-fit Bottom [2]: 0.9805
- Best-fit LogEC50 [2]: -6.342
- Best-fit Top [2]: 107.4
- Best-fit Bottom (SSTR2-WT-1 control of I195A-1): 0.5008
- Best-fit LogEC50 (SSTR2-WT-1 control of I195A-1): -6.514
- Best-fit Span (SSTR2-WT-1 control of I195A-1): 104.2
- Best-fit Top (SSTR2-WT-1 control of I195A-1): 104.7
- Best-fit Bottom (SSTR2-WT-1 control of Y50A-1): -1.342
- Best-fit LogEC50 (SSTR2-WT-1 control of Y50A-1): -6.666
- Best-fit Span (SSTR2-WT-1 control of Y50A-1): 105.2
- Best-fit Top (SSTR2-WT-1 control of Y50A-1): 103.8
- Best-fit Bottom (SSTR2-WT-2 control of I195A-2): 0.4349
- Best-fit LogEC50 (SSTR2-WT-2 control of I195A-2): -6.531
- Best-fit Span (SSTR2-WT-2 control of I195A-2): 102.7
- Best-fit Top (SSTR2-WT-2 control of I195A-2): 103.1
- Best-fit Bottom (SSTR2-WT-2 control of Q102A-2): -0.0463
- Best-fit LogEC50 (SSTR2-WT-2 control of Q102A-2): -6.469
- Best-fit Bottom (SSTR2-WT-2 control of Y50A-2): -1.812
- Best-fit LogEC50 (SSTR2-WT-2 control of Y50A-2): -6.566
- Best-fit Span (SSTR2-WT-2 control of Y50A-2): 107.5
- Best-fit Top (SSTR2-WT-2 control of Y50A-2): 105.7
- Best-fit Bottom (SSTR2-WT-3 control of Y50A-3): -2.538
- Best-fit LogEC50 (SSTR2-WT-3 control of Y50A-3): -6.515
- Best-fit Span (SSTR2-WT-3 control of Y50A-3): 108.6
- Best-fit Top (SSTR2-WT-3 control of Y50A-3): 106.1
- Span (best-fit value) (SSTR2-WT, run WT-1): 106.4 and 106.9 and 102.6 and 115.9 and 106
- Top (best-fit value) (SSTR2-WT, run WT-1): 107.4 and 107.9 and 101.5 and 113.5 and 105.5
- Span (best-fit value) (SSTR2-WT, run WT-2): 106.4 and 103.6 and 103.9 and 102.6 and 106.8
- Top (best-fit value) (SSTR2-WT, run WT-2): 107.4 and 106.9 and 102.6 and 101.5 and 107.6
- Span (best-fit value) (SSTR2-WT, run WT-3): 112.3 and 105.2 and 106 and 103.9 and 104.9 and 106.4
- Top (best-fit value) (SSTR2-WT, run WT-3): 109 and 103.8 and 105.5 and 102.6 and 107.1 and 107.4
- β-arrestin recruitment (SSTR2 WT): lower efficacy of β-arrestin recruitment
- β-arrestin recruitment (SSTR2 WT, listed as Paltusotine): lower β-arrestin recruitment compared with octreotide
- Bottom (best-fit) (WT-1 (D122A set)): 1.007
- LogEC50 (best-fit) (WT-1 (D122A set)): -6.376

— PMC9944328 (Nature Communications, 2023)
